Measured values taken from patent publication US20260166122A1, “USE OF MICROPEPTIDE MIAC” (NANJING ANJI BIOTECHNOLOGY CO., LTD, priority 2023, published 2026).
Like-named read-outs stand apart in the source and are kept apart here. Marks after values point to notes of the source that are not given here. Ends that are not written are not given here.

Legend:
Assay type in all cases: cell-based
Conditions in all cases: 72 h
[1] = system: human ovarian cancer cells SKOV3
Procedure: (§1) Human pancreatic cancer, hepatocellular carcinoma, colorectal cancer, ovarian cancer, cervical cancer, bladder cancer, melanoma, glioblastoma, neuroblastoma, glioma, osteosarcoma, myeloma, lymphoma, hematologic malignancies, and cholangiocarcinoma cells were cultured in an incubator at 37° C. with 5% CO2 until the density reached 90%, then digested and collected with trypsin, resuspended in a culture medium, and counted under a microscope; the cell concentration was adjusted to about 1.0×10^5 cells/mL; and the cell suspension was inoculated into a 96-well plate, with 100 μL per well, and incubated overnight in an incubator at 37° C. with 5% CO2. After the cells were completely attached to the wall, 100 μL of micropeptides MIAC with concentrations of 50 μM, 100 μM and 200 μM were added to form an administration group; and a culture medium without any medicament was used as a negative control group. After continuing incubation for 72 h, 100 μL of CCK8 was added to each well of the 96-well plate for dissolving. The absorbance OD was measured at a detection wavelength of 450 nm with a microplate reader, and the proliferation inhibition (PI) was calculated using the formula of PI (%)=1-administration group/negative control group. The experiment was repeated 3 times independently, the results were expressed as Mean±SD, and a statistical T test was performed, where *P<0.05 indicated a significant difference and **P<0.01 indicated an extremely significant difference.

[2] = system: human malignant melanoma cells M14
Procedure: as §1

[3] = system: human chronic myeloid leukemia cells K562
Procedure: as §1

[4] = system: human malignant melanoma cells A375
Procedure: as §1

[5] = system: human hepatocellular carcinoma cells HepG2
Procedure: as §1

[6] = system: human diffuse large B-cell lymphoma cells OCI-LY10
Procedure: as §1

[7] = system: human T-cell acute lymphoblastic leukemia cells JurKat
Procedure: as §1

[8] = system: human acute promyelocytic leukemia cells NB4
Procedure: as §1

[9] = system: peripheral blood B lymphocytes RPMI-8226 in human multiple myeloma
Procedure: as §1

[10] = system: human mantle cell lymphoma cells JeKo-1
Procedure: as §1

[11] = system: human myeloid leukemia cells HL60
Procedure: as §1

[12] = system: human hepatocellular carcinoma cells SMMC-7721
Procedure: as §1

[13] = system: human colon cancer cells HCT-116
Procedure: as §1

[14] = system: human hepatocellular carcinoma cells HCCLM3
Procedure: as §1

[15] = system: human malignant melanoma cells SK-mel-2
Procedure: as §1

[16] = system: human pancreatic cancer cells MIP-PaCa-2
Procedure: as §1

[17] = system: human pancreatic cancer cells PANC-1
Procedure: as §1

[18] = system: human cervical cancer cells SIHA
Procedure: as §1

[19] = system: human hepatocellular carcinoma cells QGY-7701
Procedure: as §1

[20] = system: human colon cancer cells LOVO
Procedure: as §1

[21] = system: human colon cancer cells SW480
Procedure: as §1

[22] = system: human diffuse large B-cell lymphoma cells U2932
Procedure: as §1

Sequence: MERAGVPGFSPRRSSVEAKMQSTSCSVRKSSTVTAWPAVVLLLSWGQRRGG [MIAC, micropeptide inhibiting actin cytoskeleton]
- OD ([1]; SKOV3, 50 μM): 1.244 ± 0.282**
- OD ([1]; SKOV3, 100 μM): 0.843 ± 0.049**
- OD ([1]; SKOV3, 200 μM): 0.727 ± 0.038**
- OD ([2]; M14, 50 μM): 1.585 ± 0.030
- OD ([2]; M14, 100 μM): 1.046 ± 0.060**
- OD ([2]; M14, 200 μM): 0.639 ± 0.046**
- OD ([3]; K562, 50 μM): 1.004 ± 0.012**
- OD ([3]; K562, 100 μM): 0.544 ± 0.062**
- OD ([3]; K562, 200 μM): 0.338 ± 0.025**
- OD ([4]; A375, 50 μM): 1.310 ± 0.069**
- OD ([4]; A375, 100 μM): 1.194 ± 0.043**
- OD ([4]; A375, 200 μM): 0.911 ± 0.071**
- OD ([5]; HepG2, 50 μM): 0.575 ± 0.047**
- OD ([5]; HepG2, 100 μM): 0.267 ± 0.022**
- OD ([5]; HepG2, 200 μM): 0.169 ± 0.015**
- OD ([6]; OCI-LY10, 50 μM): 0.719 ± 0.028**
- OD ([6]; OCI-LY10, 100 μM): 0.598 ± 0.033**
- OD ([6]; OCI-LY10, 200 μM): 0.376 ± 0.019**
- OD ([7]; 50 μM): 0.984 ± 0.032
- OD ([7]; 100 μM): 0.730 ± 0.032**
- OD ([7]; 200 μM): 0.559 ± 0.038**
- OD ([8]; NB4, 50 μM): 1.177 ± 0.042**
- OD ([8]; NB4, 100 μM): 0.826 ± 0.066**
- OD ([8]; NB4, 200 μM): 0.624 ± 0.052**
- OD ([9]; RPMI-8226, 50 μM): 2.008 ± 0.023
- OD ([9]; RPMI-8226, 100 μM): 1.001 ± 0.027**
- OD ([9]; RPMI-8226, 200 μM): 0.522 ± 0.028**
- OD ([10]; JeKo-1, 50 μM): 1.174 ± 0.027
- OD ([10]; JeKo-1, 100 μM): 0.820 ± 0.078**
- OD ([10]; JeKo-1, 200 μM): 0.496 ± 0.052**
- OD ([11]; HL60, 50 μM): 1.378 ± 0.029**
- OD ([11]; HL60, 100 μM): 0.725 ± 0.027**
- OD ([11]; HL60, 200 μM): 0.549 ± 0.023**
- OD ([12]; SMMC-7721, 50 μM): 1.292 ± 0.012
- OD ([12]; SMMC-7721, 100 μM): 1.032 ± 0.011**
- OD ([12]; SMMC-7721, 200 μM): 0.674 ± 0.033**
- OD ([13]; HCT-116, 50 μM): 1.253 ± 0.019**
- OD ([13]; HCT-116, 100 μM): 0.976 ± 0.038**
- OD ([13]; HCT-116, 200 μM): 0.688 ± 0.047**
- OD ([14]; HCCLM3, 50 μM): 1.420 ± 0.054
- OD ([14]; HCCLM3, 100 μM): 0.981 ± 0.019**
- OD ([14]; HCCLM3, 200 μM): 0.706 ± 0.041**
- OD ([15]; SK-mel-2, 50 μM): 1.302 ± 0.043**
- OD ([15]; SK-mel-2, 100 μM): 0.822 ± 0.060**
- OD ([15]; SK-mel-2, 200 μM): 0.570 ± 0.011**
- OD ([16]; MIP-PaCa-2, 50 μM): 0.898 ± 0.035
- OD ([16]; MIP-PaCa-2, 100 μM): 0.866 ± 0.035**
- OD ([16]; MIP-PaCa-2, 200 μM): 0.571 ± 0.038**
- OD ([17]; PANC-1, 50 μM): 1.027 ± 0.073
- OD ([17]; PANC-1, 100 μM): 0.708 ± 0.043**
- OD ([17]; PANC-1, 200 μM): 0.427 ± 0.02**
- OD ([18]; 50 μM): 0.844 ± 0.099**
- OD ([18]; 100 μM): 0.755 ± 0.103**
- OD ([18]; 200 μM): 0.261 ± 0.052**
- OD ([19]; QGY-7701, 50 μM): 1.185 ± 0.018**
- OD ([19]; QGY-7701, 100 μM): 0.785 ± 0.030**
- OD ([19]; QGY-7701, 200 μM): 0.520 ± 0.019**
- OD ([20]; 50 μM): 1.148 ± 0.008**
- OD ([20]; 100 μM): 0.970 ± 0.021**
- OD ([20]; 200 μM): 0.624 ± 0.026**
- OD ([21]; SW480, 50 μM): 0.640 ± 0.032**
- OD ([21]; SW480, 100 μM): 0.283 ± 0.007**
- OD ([21]; SW480, 200 μM): 0.147 ± 0.016**
- OD ([22]; U2932, 50 μM): 0.426 ± 0.019**
- OD ([22]; U2932, 100 μM): 0.275 ± 0.038**
- OD ([22]; U2932, 200 μM): 0.167 ± 0.025**
